Tests used:
[1] = compound: CC1CC(=O)N(C2=CN=C(N=C2N1C3CCCC3)NC4=C(C=C(C=C4)C(=O)NC5CCN(CC5)C)OC)C [NPK76-II-72-1] + COc1cc2c(Oc3ccc(NC(=O)C4(C(=O)Nc5ccc(F)cc5)CC4)cc3F)ccnc2cc1OCCCN1CCOCC1 [Foretinib] (partner 0.25 µM); assay: relative viability (nuclei count vs DMSO), 5 days (fraction); higher = more cells survive
In short: (§1)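 Each reported value is a median over duplicate plates. It expresses relative viability: treated-well nuclei count divided by vehicle-well nuclei count. Lung cancer cell lines in 1536-well plates were dosed by pin tool a day after seeding, alone with one drug or with a fixed anchor-drug dose plus five library-drug doses (not always all listed) in √10 steps, and nuclei were counted after 5 days.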

BI-2536 + Tozasertib = compound: CC[C@@H]1C(=O)N(C)c2cnc(Nc3ccc(C(=O)NC4CCN(C)CC4)cc3OC)nc2N1C1CCCC1 [BI-2536] + Cc1cc(Nc2cc(N3CCN(C)CC3)nc(Sc3ccc(NC(=O)C4CC4)cc3)n2)n[nH]1 [Tozasertib] (partner 0.1 µM); assay: as above
In short: as §1

Cell Line | relative viability ([1]; first compound 0.01 µM) | relative viability ([1]; first compound 0.03162 µM) | relative viability ([1]; first compound 0.1 µM) | relative viability ([1]; first compound 0.3162 µM) | relative viability ([1]; first compound 1 µM) | relative viability (BI-2536 + Tozasertib; first compound 0.01 µM) | relative viability (BI-2536 + Tozasertib; first compound 0.03162 µM) | relative viability (BI-2536 + Tozasertib; first compound 0.1 µM) | relative viability (BI-2536 + Tozasertib; first compound 0.3162 µM) | relative viability (BI-2536 + Tozasertib; first compound 1 µM)
NCI-H596 | 0.907 | 1.01 | 0.824 | 0.819 | 0.842 | 0.913 | 1.12 | 0.769 | 0.267 | 0.247
NCI-H727 | 0.93 | 1.04 | 0.783 | 1.14 | 0.897 | 0.646 | 0.695 | 0.672 | 0.496 | 0.392
H3255 | 0.838 | 0.797 | 0.854 | 0.633 | 0.867 | 0.569 | 0.507 | 0.586 | 0.196 | 0.224
SK-MES-1 | 0.975 | 0.957 | 0.877 | 0.808 | 0.912 | 0.956 | 0.801 | 0.191 | 0.151 | 0.172
NCI-H1437 | 1.22 | 1.27 | 1.15 | 1.11 | 1.25 | 0.465 | 0.432 | 0.389 | 0.333 | 0.237
NCI-H2342 | 0.948 | 1.1 | 1.09 | 0.88 | 1.15 | 0.449 | 0.508 | 0.468 | 0.378 | 0.294
LU99A | 0.774 | 0.765 | 0.936 | 0.503 | 0.979 | 0.272 | 0.235 | 0.248 | 0.281 | 0.227
SW 900 | 0.864 | 1.27 | 0.852 | 0.76 | 0.947 | 0.566 | 0.694 | 0.418 | 0.278 | 0.173
HCC-827 | 1.01 | 1.06 | 0.912 | 1.03 | 1.12 | 0.45 | 0.414 | 0.428 | 0.376 | 0.308
LK-2 | 1.15 | 1.26 | 1.09 | 1.09 | 1.13 | 0.152 | 0.151 | 0.173 | 0.187 | 0.185
HCC-366 | 0.929 | 0.953 | 0.906 | 0.944 | 0.951 | 0.119 | 0.169 | 0.115 | 0.038 | 0.0412
